Columns and labels:
[1] = molecular target: T1, Thymidylate synthase (Lactobacillus casei, UniProt P00469); assay: In vitro inhibitory activity against Thymidylate synthase was evaluated; parameters: species or system Lacticaseibacillus casei
T1 sequence (P00469 whole entry): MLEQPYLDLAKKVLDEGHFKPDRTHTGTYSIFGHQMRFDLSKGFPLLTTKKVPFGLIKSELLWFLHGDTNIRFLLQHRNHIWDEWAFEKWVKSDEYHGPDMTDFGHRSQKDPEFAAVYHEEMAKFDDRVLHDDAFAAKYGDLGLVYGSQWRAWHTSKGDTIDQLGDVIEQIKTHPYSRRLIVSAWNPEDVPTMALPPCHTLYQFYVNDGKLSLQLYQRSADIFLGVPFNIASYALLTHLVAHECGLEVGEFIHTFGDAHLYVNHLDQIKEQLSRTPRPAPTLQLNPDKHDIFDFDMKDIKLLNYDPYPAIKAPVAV

[2] = molecular target: T2, Thymidylate synthase (Lactobacillus casei) (UniProt P00469); conditions: Lacticaseibacillus casei
T2 sequence (whole entry): T1 sequence (P00469 whole entry)

[3] = molecular target: T2, Thymidylate synthase (Lactobacillus casei); conditions: Lacticaseibacillus casei; remark: listed apart in the source
Description: Association constant (Kassoc) towards Thymidylate synthase binding site by electron spin resonance

[4] = molecular target: T2, Thymidylate synthase (Lactobacillus casei); assay: Association constant (Kassoc) towards Thymidylate synthetase binding site by electron spin resonance; conditions: Lacticaseibacillus casei
[5] = molecular target: T1, Thymidylate synthase; assay: In vitro inhibitory activity against Thymidylate synthetase was evaluated; parameters: species or system Lacticaseibacillus casei
[6] = molecular target: T2, Thymidylate synthase (Lactobacillus casei); assay: The high gain spectrum and that of thymidylate synthetase both at high and low peaks indicating its binding activity; conditions: Lacticaseibacillus casei

Row | Structure (SMILES) | Ki [1] [µM] | 2T11 [2] | K ass [3] [M⁻¹] | K ass [4] [M⁻¹] | Ki [5] [µM] | 2T11 [6]
1 | CC1(C)CC(NC(=O)CSc2cn([C@H]3C[C@H](O)[C@@H](CO)O3)c(=O)[nH]c2=O)CC(C)(C)N1[O] | 89 | 61 | 240000 |  |  | 
2 | CC1(C)C=C(C(=O)NC/C=C/c2cn([C@H]3C[C@H](O)[C@@H](CO)O3)c(=O)[nH]c2=O)C(C)(C)N1[O] |  |  |  | 190000 | 9.2 | 60
3 | NC/C=C/c1cn([C@H]2C[C@H](O)[C@@H](COP(=O)(O)O)O2)c(=O)[nH]c1=O |  |  |  |  | 7.9 | 
